From ChEMBL document CHEMBL3421629, “Pyrazole phenylcyclohexylcarbamates as inhibitors of human fatty acid amide hydrolases (FAAH)” (Eur J Med Chem, 2015) come the findings set out here.

Assay [1] addresses T1, Fatty-acid amide hydrolase 1 (Homo sapiens, UniProt O00519).
T1 sequence (O00519 whole entry): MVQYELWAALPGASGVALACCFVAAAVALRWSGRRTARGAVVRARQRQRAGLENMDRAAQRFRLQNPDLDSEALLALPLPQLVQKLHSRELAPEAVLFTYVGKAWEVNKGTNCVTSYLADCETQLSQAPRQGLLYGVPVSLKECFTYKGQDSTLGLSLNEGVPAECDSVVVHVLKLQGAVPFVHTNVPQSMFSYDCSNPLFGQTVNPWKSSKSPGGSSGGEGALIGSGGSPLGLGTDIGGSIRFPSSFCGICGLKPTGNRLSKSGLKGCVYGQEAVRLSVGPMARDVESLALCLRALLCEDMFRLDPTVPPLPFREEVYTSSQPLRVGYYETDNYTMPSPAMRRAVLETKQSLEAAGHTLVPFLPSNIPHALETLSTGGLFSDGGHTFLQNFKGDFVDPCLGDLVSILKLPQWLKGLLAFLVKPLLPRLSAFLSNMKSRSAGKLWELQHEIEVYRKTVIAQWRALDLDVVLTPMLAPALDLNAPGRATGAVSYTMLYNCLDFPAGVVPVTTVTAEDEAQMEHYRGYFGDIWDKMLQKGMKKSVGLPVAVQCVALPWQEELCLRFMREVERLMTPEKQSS
The assay is described as follows: Inhibition of human recombinant FAAH using AMC arachidonoyl amide as substrate after 30 mins by fluorescence assay.

In the next assay the target is T2, Monoglyceride lipase (Homo sapiens, UniProt Q99685).
T2 sequence (Q99685 whole entry): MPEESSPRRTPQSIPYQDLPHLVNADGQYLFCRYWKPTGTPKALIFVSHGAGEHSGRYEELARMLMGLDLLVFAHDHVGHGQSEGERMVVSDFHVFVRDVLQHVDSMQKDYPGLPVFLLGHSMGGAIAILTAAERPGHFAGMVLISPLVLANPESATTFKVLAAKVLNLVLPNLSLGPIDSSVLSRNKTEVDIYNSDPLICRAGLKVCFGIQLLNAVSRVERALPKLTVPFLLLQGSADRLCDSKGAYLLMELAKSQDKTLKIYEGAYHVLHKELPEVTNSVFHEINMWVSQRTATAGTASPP
The assay is described as follows: Inhibition of human recombinant MAGL using 4-nitrophenylacetate as substrate after 30 mins.

The species named for another assay is Homo sapiens. Nature of the assay: Selectivity index, ratio of IC50 for human recombinant MAGL to IC50 for human recombinant FAAH.
Assay [2] has as its target T1, Fatty-acid amide hydrolase 1. Nature of the assay: Inhibition of human recombinant FAAH using AMC arachidonoyl amide as substrate preincubated with protein for 0 min followed by substrate addition by fluorescence assay.
Assay [3] shares this target. The assay is described as follows: Inhibition of human recombinant FAAH using AMC arachidonoyl amide as substrate preincubated with protein for 30 mins followed by substrate addition by fluorescence assay.
The target is the same in assay [4]. Nature of the assay: Inhibition of human recombinant FAAH using AMC arachidonoyl amide as substrate preincubated with protein for 60 mins followed by substrate addition by fluorescence assay.

`CCCCCCNC(=O)Oc1cccc(-c2cc(C(=O)OCC)nn2-c2ccccc2)c1`: in assay [1], the IC50 (commonly the concentration needed to halve the response being measured) amounted to 0.088 µM.
Still for that read-out and setting: to `CCOC(=O)c1cc(-c2cccc(OC(=O)NC3CCCCC3)c2)nn1-c1ccc(OC)cc1` belongs 0.407 µM; to `CCOC(=O)c1cc(-c2cccc(OC(=O)NC3CCCCC3)c2)n(-c2ccc(OC)cc2)n1`, 0.103 µM; to `NC(=O)c1cc(-c2cccc(OC(=O)NC3CCCCC3)c2)n(-c2ccc(Cl)cc2)n1`, 0.174 µM.
On the same count and under the same terms, to `CCOC(=O)c1cc(-c2ccc(OC(=O)NC3CCCCC3)cc2)nn1C` belongs 0.316 µM; to `CC(C)NC(=O)c1cc(-c2cccc(OC(=O)NC3CCCCC3)c2)n(-c2ccccc2)n1`, 0.232 µM.
As to `CCOC(=O)c1cc(-c2cccc(OC(=O)NC3CCCCC3)c2)n(-c2ccc(Cl)cc2)n1`, the IC50 in assay [1] stood at 0.017 µM; at Monoglyceride lipase, 83 µM; in assay [2], 0.015 µM; in assay [3] it was 0.017 µM; in assay [4], 0.018 µM. In the assay filed under Homo sapiens, the Ratio IC50 was 4900.
For `CCOC(=O)c1cc(-c2ccc(OC(=O)NC3CCCCC3)cc2)nn1CC`, in assay [1], the IC50 came out at 0.603 µM.
Take `NC(=O)c1cc(-c2ccc(OC(=O)NC3CCCCC3)cc2)n(-c2ccc(Cl)cc2)n1`: in assay [1], the half-maximal inhibitory concentration (IC50) is 0.172 µM.
As to `CCCOC(=O)c1cc(-c2cccc(OC(=O)NC3CCCCC3)c2)n(-c2ccccc2)n1`, the values for the IC50 (in assay [1]; on Monoglyceride lipase) were 0.027 µM and 38 µM, respectively. In the assay listed under Homo sapiens, the Ratio IC50 turned out to be 1380.
Consider `COc1nn(-c2ccc(NC(=O)OCc3ccccc3)c(C)c2)c(=O)o1`, for which the IC50 came out at 0.014 µM in assay [1], 0.013 µM in assay [2], 0.0035 µM in assay [3] and 0.0019 µM in assay [4].
For `CCOC(=O)c1cc(-c2ccc(OC(=O)NC3CCCCC3)cc2)nn1-c1ccc(Cl)cc1`, the IC50 in assay [1] came out at 0.586 µM.
On the same count and under the same terms, next, `O=C(NC1CCCCC1)Oc1cccc(-c2cc(C(=O)NC3CCCCC3)nn2-c2ccccc2)c1`: 0.288 µM.
In the case of `COC(=O)c1cc(-c2cccc(OC(=O)NC3CCCCC3)c2)n(-c2ccccc2)n1`, the IC50 in assay [1] was 0.018 µM; at Monoglyceride lipase, 49 µM. In addition, in the assay filed under Homo sapiens, the Ratio IC50 stood at 2750.
Consider `CCOC(=O)c1cc(-c2cccc(OC(=O)NC3CCCCC3)c2)nn1-c1ccccc1`, for which, in assay [1], the IC50 was 0.539 µM.
Same read-out and setting: next, `NC(=O)c1cc(-c2ccc(OC(=O)NC3CCCCC3)cc2)n(-c2ccccc2)n1`: 0.071 µM.
For the compound `CCOC(=O)c1cc(-c2cccc(OC(=O)NC3CCCCC3)c2)n(-c2ccc(C)cc2)n1`, the IC50 in assay [1] turned out to be 0.029 µM; on Monoglyceride lipase it was 34 µM. Further, the Ratio IC50 in the assay listed under Homo sapiens came out at 1190.
For the compound `O=C(NC1CCCCC1)Oc1cccc(-c2cc(C(=O)O)nn2-c2ccccc2)c1`, the half-inhibitory concentration (IC50) in assay [1] turned out to be 2.27 µM.
As to `CCOC(=O)c1cc(-c2ccc(OC(=O)NC3CCCCC3)cc2)nn1-c1ccc(OC)cc1`, in assay [1], the IC50 worked out at 0.159 µM.
On the same count and under the same terms, to `CCOC(=O)c1cc(-c2ccc(OC(=O)NC3CCCCC3)cc2)n(C)n1` belongs 0.081 µM; to `CCOC(=O)c1cc(-c2cccc(OC(=O)NC3CCCCC3)c2)n(Cc2ccccc2)n1`, 0.07 µM.
For `NC(=O)c1cc(-c2cccc(OC(=O)NC3CCCCC3)c2)n(-c2ccccc2)n1`, the IC50 in assay [1] was found to be 0.169 µM.
For the compound `CCOC(=O)c1cc(-c2cccc(OC(=O)NC3CCCCC3)c2)n(-c2ccccc2)n1`, the half-maximal inhibitory concentration (IC50) in assay [1] is 0.011 µM; at Monoglyceride lipase, 21 µM. Further, the Ratio IC50 in the assay filed under Homo sapiens stood at 1840.
`CCOC(=O)c1cc(-c2cccc(OC(=O)NC3CCCCC3)c2)n(-c2ccc(C(F)(F)F)cc2)n1`: in assay [1], the 50% inhibitory concentration (IC50) was determined as 0.132 µM.
Consider `COc1ccc(-n2nc(C(N)=O)cc2-c2cccc(OC(=O)NC3CCCCC3)c2)cc1`, for which the half-inhibitory concentration (IC50) in assay [1] was 0.743 µM.
On the same count and under the same terms, to `CCOC(=O)c1cc(-c2ccc(OC(=O)NC3CCCCC3)cc2)n(CC)n1` belongs 0.214 µM; to `CCOC(=O)c1cc(-c2cccc(OC(=O)NC3CCCCC3)c2)n(-c2ccc([N+](=O)[O-])cc2)n1`, 0.078 µM; to `CCCCCCNC(=O)Oc1cccc(-c2cc(C(=O)OCCC)nn2-c2ccccc2)c1`, 0.101 µM.
On the same count and under the same terms, to `CCOC(=O)c1cc(-c2ccc(OC(=O)NC3CCCCC3)cc2)n(-c2ccccc2)n1` belongs 0.268 µM; to `CCOC(=O)c1cc(-c2cccc(OC(=O)NC3CCCCC3)c2)nn1C`, 0.227 µM.
Still for that read-out and setting: to `CCOC(=O)c1cc(-c2cccc(OC(=O)NC3CCCCC3)c2)n(CC)n1` belongs 0.101 µM; to `Cn1nc(C(N)=O)cc1-c1ccc(OC(=O)NC2CCCCC2)cc1`, 0.209 µM; to `O=C(NC1CCCCC1)Oc1cccc(-c2cc(CO)nn2-c2ccccc2)c1`, 0.462 µM.
Regarding `CCOC(=O)c1cc(-c2cccc(OC(=O)NC3CCCCC3)c2)nn1-c1ccc(Cl)cc1`, the IC50 in assay [1] was 0.353 µM.
Same read-out and setting: to `CCOC(=O)c1cc(-c2ccc(OC(=O)NC3CCCCC3)cc2)nn1-c1ccccc1` belongs 0.592 µM.
Still for that read-out and setting: to `CCOC(=O)c1cc(-c2ccc(OC(=O)NC3CCCCC3)cc2)n(-c2ccc(Cl)cc2)n1` belongs 0.281 µM; to `CCN(CC)C(=O)c1cc(-c2cccc(OC(=O)NC3CCCCC3)c2)n(-c2ccccc2)n1`, 0.448 µM; to `CCOC(=O)c1cc(-c2cccc(OC(=O)NC3CCCCC3)c2)nn1CC`, 0.507 µM.
As for `CCOC(=O)c1cc(-c2cccc(OC(=O)NC3CCCCC3)c2)n(-c2ccc(Cl)cc2Cl)n1`, in assay [1], the IC50 is 0.123 µM.
As for `CCOC(=O)c1cc(-c2cccc(OC(=O)NC3CCCCC3)c2)n(C)n1`, the IC50 in assay [1] came to 0.303 µM.
